Reference: Sander's compilation of Henry's law constants (doi:10.1021/je0000266)

Test: Henry solubility constant Hcp at 298.15 K (mol/(m3 Pa))
Details: reference: Bamford et al. (2000)

SMILES	Henry solubility constant Hcp
Clc1ccc(-c2ccc(Cl)c(Cl)c2)c(Cl)c1 [2,3',4,4'-tetrachlorobiphenyl]	0.027
Clc1ccc(Cl)c(-c2cc(Cl)c(Cl)cc2Cl)c1 [2,2',4,5,5'-pentachlorobiphenyl]	0.024
Clc1cc(Cl)c(-c2cc(Cl)c(Cl)cc2Cl)c(Cl)c1 [2,2',4,4',5,6'-hexachlorobiphenyl]	0.013
Clc1cc(Cl)c(-c2c(Cl)c(Cl)cc(Cl)c2Cl)c(Cl)c1 [2,2',3,4',5,6,6'-heptachlorobiphenyl]	0.0088
Clc1ccc(-c2ccccc2Cl)cc1 [2,4'-dichlorobiphenyl]	0.04
Clc1ccc(Cl)c(-c2cc(Cl)ccc2Cl)c1 [2,2',5,5'-tetrachlorobiphenyl]	0.032
Clc1cc(Cl)c(-c2ccc(Cl)c(Cl)c2Cl)cc1Cl [2,2',3,4,4',5'-hexachlorobiphenyl]	0.022
Clc1ccc(-c2cc(Cl)c(Cl)c(Cl)c2)cc1Cl [3,3',4,4',5-pentachlorobiphenyl]	0.048
Clc1cc(Cl)c(-c2c(Cl)c(Cl)cc(Cl)c2Cl)c(Cl)c1Cl [2,2',3,3',4,5',6,6'-octachlorobiphenyl]	0.01
Clc1cc(Cl)c(-c2ccccc2Cl)c(Cl)c1 [2,2',4,6-tetrachlorobiphenyl]	0.016
Clc1cc(Cl)c(-c2cc(Cl)c(Cl)cc2Cl)cc1Cl [2,2',4,4',5,5'-hexachlorobiphenyl]	0.019
Clc1ccccc1-c1ccccc1 [2-chlorobiphenyl]	0.049
Clc1ccc(Cl)c(-c2cccc(Cl)c2Cl)c1 [2,2',3,5'-tetrachlorobiphenyl]	0.036
Clc1ccc(-c2cc(Cl)c(Cl)cc2Cl)cc1Cl [2,3',4,4',5-pentachlorobiphenyl]	0.028
Clc1ccc(-c2ccc(Cl)c(Cl)c2)cc1Cl [3,3',4,4'-tetrachlorobiphenyl]	0.062
Clc1ccc(Cl)c(-c2ccccc2Cl)c1 [2,2',5-trichlorobiphenyl]	0.039
Clc1cc(Cl)c(-c2c(Cl)c(Cl)cc(Cl)c2Cl)cc1Cl [2,2',3,4',5,5',6-heptachlorobiphenyl]	0.016
Clc1ccc(-c2ccc(Cl)c(Cl)c2Cl)cc1Cl [2,3,3',4,4'-pentachlorobiphenyl]	0.03
